From US11026426B2, “Oxadiazole and phenol derivatives as antibacterial and/or herbicidal agents” (NORTHERN ILLINOIS RESEARCH FOUNDATION, priority 2017, dated 2021)
Read-outs that look alike come from different tables or passages of the source.

How the values were obtained:
[1] = biological target: T1, Mycobacterium tuberculosis IspD (MtIspD) (Mycobacterium tuberculosis, UniProt P9WKG9); assay: Thermal shift assay against MtIspD; assay type: binding
T1 sequence (P9WKG9 1-231): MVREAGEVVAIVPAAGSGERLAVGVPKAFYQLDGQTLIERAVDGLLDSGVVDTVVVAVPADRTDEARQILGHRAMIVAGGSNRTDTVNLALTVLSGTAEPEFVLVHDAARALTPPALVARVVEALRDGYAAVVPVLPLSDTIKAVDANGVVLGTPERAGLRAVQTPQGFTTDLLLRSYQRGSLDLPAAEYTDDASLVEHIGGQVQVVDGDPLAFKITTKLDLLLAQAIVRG

[2] = system: Corynebacterium pseudodiphtheriae; assay: Antibacterial preliminary screening CP; assay type: cell-based; conditions: score 0-3;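 also: 0 is no inhibition and 3 matches the commercial antibiotic control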
Bacillus cereus = assay: Antibacterial preliminary screening BC; assay type: cell-based; conditions: score 0-3; also: key: 0 represents no inhibition; 3 is comparable to commercial antibiotic control
Pseudomonas aeruginosa = assay: Antibacterial preliminary screening PA; assay type: cell-based; conditions: for PA score: score 0-3
Corynebacterium xerosis = assay: Antibacterial preliminary screening CX; assay type: cell-based; conditions: score 0-3; also: key: 0 represents no inhibition; 3 is comparable to commercial antibiotic control
Escherichia coli = assay: Antibacterial preliminary screening EC; assay type: cell-based; conditions: score 0-3; also: key: 0 represents no inhibition; 3 is comparable to commercial antibiotic control
AtIspF = AtIspF (Arabidopsis thaliana, UniProt Q9CAK8); assay: University of Hamburg photometric enzymatic inhibition assay AtIspF; assay type: biochemical
Experimental: (§1) Compounds were subjected to a photometric enzymatic assay to test for inhibition of the plant enzymes Arabidopsis thaliana IspD and IspF, and IspE from Lycopersicon esculentum.
The IspF assay mixture conditions were as follows: 100 mM Tris hydrochloride at pH 8.0 with 10 mM MgCl2, 1 mM dithiothreitol, 2.5 mM potassium phosphoenol pyruvate, 2 mM ATP, 1 mM of 4-diphosphocytidyl-2C methylerythritol 2-phosphate, 460 μM NADH, 1.1% (v/v) DMSO, 0.5 U CMP kinase, 2.4 mU IspF, 1 U lactate dehydrogenase, 1 U pyruvate kinase in 180 μL of solution. Solutions were incubated at 27° C. and monitored photometrically.

AtIspD = AtIspD (Arabidopsis thaliana, UniProt P69834); assay: University of Hamburg photometric enzymatic inhibition assay AtIspD; assay type: biochemical
Experimental: as §1
The procedure for AtIspD enzymatic inhibition assay, was performed by making an assay mixture of 100 mM Tris hydrochloride at pH 8.0 with 10 mM MgCl2, 1 mM dithiothreitol, 2.5 mM potassium phosphoenol pyruvate, 2.1 mM CTP, 2 mM ATP, 1 mM of (2R,3S)-2,3-dihydroxy-4-oxopentyl phosphate, 460 μM NADH, 1.1% (v/v) DMSO, 0.4 U IspE, 1 U lactate dehydrogenase, 1 U pyruvate kinase and 2.4 mU IspD in 180 μL of solution. Solutions were incubated at 27° C. and monitored photometrically. By preparing the assay mixture with a large excess of IspE compared to IspD, any inhibition of IspE by the test inhibitor would be insignificant compared to IspD and therefore the rate of the reaction is determined by IspD activity.

lettuce seeds = assay: Lettuce leaf assay; assay type: in vivo; parameters: key: 0 (no effect); 5(complete inhibition or bleaching); conditions: ranking 0-5
From the text: The lettuce leaf assay is a qualitative assay used to determine the relative effectiveness of the test compounds at inhibition of germination of seeds and root development as well as causing bleaching of leaves. Isoprenoid synthesis is vital in plants as isoprene-product gibberellins are a class of growth hormones in plants responsible for stimulating cell elongation and division. In addition, some carotenoids are involved in photosynthesis as components of the electron transport chain. MEP pathway inhibitors have the potential to prevent synthesis of these necessary cellular components and growth hormones resulting in inhibition of germination and root development as well as causing chlorosis, or bleaching in the leaves. The lettuce leaf assay, explores the effects of compounds as potential MEP pathway inhibitors by evaluating the effect on bleaching, root development, and germination of lettuce seeds, which all rely on isoprenoid biosynthesis. […] The assay is a qualitative assay and the effects are given rankings from 0 (no effect) to 5 (complete inhibition or bleaching). In this assay, compounds are dissolved in a volatile organic solvent and applied to filter paper in a petri dish. The solvent is allowed to evaporate and lettuce seeds are applied followed by the addition of 5 mL of water to obtain the necessary concentrations. Seeds are allowed to grow and they are observed on day 3 and day 4 for evaluation.

Klebsiella pneumonia = assay: Antibacterial preliminary screening KP; assay type: cell-based; conditions: score 0-3; also: key: 0 represents no inhibition; 3 is comparable to commercial antibiotic control
[3] = system: Burkholderia thailandensis; assay type: cell-based; conditions: preliminary screening, score 0-3
[4] = biological target: Lycopersicon esculentum IspE (LeIspE) (Solanum lycopersicum, UniProt P93841); assay: Thermal shift assay against LeIspE; assay type: binding
Mycobacterium smegmatis = assay: Antibacterial preliminary screening MS; assay type: cell-based; conditions: score 0-3; also: key: 0 represents no inhibition; 3 is comparable to commercial antibiotic control
Micrococcus luteus = assay: Antibacterial preliminary screening ML; assay type: cell-based; conditions: score 0-3; also: key: 0 represents no inhibition; 3 is comparable to commercial antibiotic control
LeIspE = LeIspE (Solanum lycopersicum, UniProt P93841); assay: University of Hamburg photometric enzymatic inhibition assay LeIspE; assay type: biochemical, Lycopersicon esculentum
Experimental: as §1
The IspE assay conditions were very similar to the IspD assay in which the assay mixture was composed of 100 mM Tris hydrochloride at pH 8.0 with 10 mM MgCl2, 1 mM dithiothreitol, 2.5 mM potassium phosphoenol pyruvate, 2 mM ATP, 1 mM of 4-Diphosphocytidyl-2-C-methylerythritol, 460 μM NADH, 1.1% (v/v) DMSO, 2.4 mU IspE, 1 U lactate dehydrogenase, 1 U pyruvate kinase in 180 μL of solution. Solutions were incubated at 27° C. and monitored photometrically.

Chain of AtIspD (P69834 62-302): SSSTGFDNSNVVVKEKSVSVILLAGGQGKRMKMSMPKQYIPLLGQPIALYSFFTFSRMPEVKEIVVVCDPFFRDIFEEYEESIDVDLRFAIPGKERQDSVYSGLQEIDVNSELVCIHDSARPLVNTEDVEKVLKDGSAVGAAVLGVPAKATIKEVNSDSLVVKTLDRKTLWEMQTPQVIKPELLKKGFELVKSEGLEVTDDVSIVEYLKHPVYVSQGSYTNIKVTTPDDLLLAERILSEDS
Chain of AtIspF (Q9CAK8 53-231): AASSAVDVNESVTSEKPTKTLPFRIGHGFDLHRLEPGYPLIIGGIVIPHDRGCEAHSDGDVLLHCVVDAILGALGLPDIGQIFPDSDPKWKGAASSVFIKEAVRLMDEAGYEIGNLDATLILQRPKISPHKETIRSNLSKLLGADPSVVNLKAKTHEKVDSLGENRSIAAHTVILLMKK
Chain of LeIspE (P93841 89-401): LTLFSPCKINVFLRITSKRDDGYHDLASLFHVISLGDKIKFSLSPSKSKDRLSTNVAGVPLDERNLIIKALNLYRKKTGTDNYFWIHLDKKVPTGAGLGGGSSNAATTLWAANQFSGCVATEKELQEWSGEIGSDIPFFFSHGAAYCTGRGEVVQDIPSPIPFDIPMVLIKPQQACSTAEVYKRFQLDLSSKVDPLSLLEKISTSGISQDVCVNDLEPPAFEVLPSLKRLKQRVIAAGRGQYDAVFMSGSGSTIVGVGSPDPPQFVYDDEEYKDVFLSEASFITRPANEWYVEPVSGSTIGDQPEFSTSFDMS
Chain of Lycopersicon esculentum IspE (LeIspE) (P93841 89-401): as above

Row | SMILES | MtIspD melting point change [1] | MtIspD melting temp [1] | melting point | CP score [2] | BC score (Bacillus cereus) | PA score (Pseudomonas aeruginosa) | CX score (Corynebacterium xerosis) | EC score (Escherichia coli) | IC50 (AtIspF; read-out: AtIspF IC50) | IC50 (AtIspD; read-out: AtIspD IC50) | KP score (Klebsiella pneumonia) | BT score [3] | LeIspE melting point change [4] | LeIspE melting temp [4] | MS score (Mycobacterium smegmatis) | ML score (Micrococcus luteus) | IC50 (LeIspE; read-out: LeIspE IC50) | Bleaching (lettuce seeds; 0.15 mM) | Germination (lettuce seeds; 0.15 mM) | Root Dev. (lettuce seeds; 0.15 mM) | further results
1 | Cc1ccc(-c2nnc(-c3cc4ccccc4[nH]3)o2)cc1 [HGN-242, 2-(1H-indol-2-yl)-5-(p-tolyl)-1,3,4-oxadiazole] | 0.8 °C | 48.8 °C | 228 to 234 °C | 0 | 0 | 0 | 0 | 0 | > 1000 µM | 225 ± 17 µM | 0 | 0 | −1.75 °C | 47.75 °C | 0 | 0 | 109 ± 35 µM | – | – | – | Bleaching (lettuce seeds; 0.5 mM): 0; Germination (lettuce seeds; 0.5 mM): 2; Root Dev. (lettuce seeds; 0.5 mM): 0; Bleaching (lettuce seeds; 1.0 mM): 0; Germination (lettuce seeds; 1.0 mM): 4; Root Dev. (lettuce seeds; 1.0 mM): 0
2 | CCc1nnc(-c2cc3ccccc3[nH]2)o1 [HGN-250, 2-ethyl-5-(1H-indol-2-yl)-1,3,4-oxadiazole] | 0.8 °C | 48.8 °C | 138 to 143 °C | 0 | 0 | 0 | 0 | 0 | > 1000 µM | > 1000 µM | 0 | 0 | −2.75 °C | 46.75 °C | 0 | 0 | > 1000 µM | – | – | – | Bleaching (lettuce seeds; 0.5 mM): 0; Germination (lettuce seeds; 0.5 mM): 1; Root Dev. (lettuce seeds; 0.5 mM): 0; Bleaching (lettuce seeds; 1.0 mM): 0; Germination (lettuce seeds; 1.0 mM): 3; Root Dev. (lettuce seeds; 1.0 mM): 0
3 | c1ccc2[nH]c(-c3nnc(C4CCCCC4)o3)cc2c1 [HGN-254, 2-cyclohexyl-5-(1H-indol-2-yl)-1,3,4-oxadiazole] | 0.5 °C | 48.5 °C | 187 to 193 °C | 0 | 0 | 0 | 0 | 0 | > 1000 µM | 322 µM | 0 | 0 | −2.00 °C | 47.50 °C | 0 | 0 | > 1000 µM | 0 | 0 | 0 | Bleaching (lettuce seeds; 0.3 mM): 0; Germination (lettuce seeds; 0.3 mM): 0; Root Dev. (lettuce seeds; 0.3 mM): 0
4 | O=[N+]([O-])c1cc(-c2nnc(-c3nc4ccccc4s3)o2)cc([N+](=O)[O-])c1 [HGN-334, 2-(benzo[d]thiazol-2-yl)-5-(3,5-dinitrophenyl)-1,3,4-oxadiazole] | 0.0 °C | 48.0 °C | 180 to 185 °C | 0 | 0 | 0 | 0 | 0 | – | – | 0 | 0 | −1.50 °C | 48.00 °C | 0 | 0 | – | 0 | 0 | 0 | IC50 (AtIspF): > 500 µM; IC50 (AtIspD): > 500 µM; Bleaching (lettuce seeds; 0.3 mM): 0; Germination (lettuce seeds; 0.3 mM): 0; Root Dev. (lettuce seeds; 0.3 mM): 0; IC50 (LeIspE): > 500 µM
5 | C(=C\c1nnc(-c2nc3ccccc3s2)o1)/c1ccccc1 [HGN-335, (E)-2-(benzo[d]thiazol-2-yl)-5-styryl-1,3,4-oxadiazole] | 0.5 °C | 48.5 °C | 202 to 204 °C | 0 | 0 | 1 | 0 | 0 | > 500 µM | > 500 µM | 0 | 0 | −1.50 °C | 48.00 °C | 0 | 0 | > 500 µM | – | – | – | effectiveness against Pseudomonas aeruginosa (Pseudomonas aeruginosa): slightly effective; Bleaching (lettuce seeds; 0.1 mM): 0; Germination (lettuce seeds; 0.1 mM): 0; Root Dev. (lettuce seeds; 0.1 mM): 0; Bleaching (lettuce seeds; 0.2 mM): 0; Germination (lettuce seeds; 0.2 mM): 0; Root Dev. (lettuce seeds; 0.2 mM): 0
6 | COc1ccc(-c2nnc(-c3nc4ccccc4s3)o2)cc1 [HGN-336, 2-(benzo[d]thiazol-2-yl)-5-(4-methoxyphenyl)-1,3,4-oxadiazole] | – | 49.5 °C | 167 to 169 °C | 0 | 0 | 0 | 0 | 0 | > 500 µM | > 500 µM | 0 | 0 | −1.25 °C | 48.25 °C | 0 | 0 | 493 ± 49 µM | 0 | 1 | 0 | Bleaching (lettuce seeds; 0.3 mM): 0; Germination (lettuce seeds; 0.3 mM): 0; Root Dev. (lettuce seeds; 0.3 mM): 0
7 | FC(F)(F)c1ccc(-c2nnc(-c3nc4ccccc4s3)o2)cc1 [HGN-337, 2-(benzo[d]thiazol-2-yl)-5-(4-(trifluoromethyl)phenyl)-1,3,4-oxadiazole] | 0.8 °C | 48.8 °C | 145 to 148 °C | 0 | 0 | 0 | 0 | 0 | > 500 µM | > 500 µM | 0 | 0 | −1.75 °C | 47.75 °C | 0 | 0 | > 500 µM | 0 | 0 | 0 | Bleaching (lettuce seeds; 0.3 mM): 0; Germination (lettuce seeds; 0.3 mM): 0; Root Dev. (lettuce seeds; 0.3 mM): 0
